In patent US11168067B2, “Substituted quinazoline compound having blood-brain barrier penetration capability” (WEISHANG (SHANGHAI) BIO-PHARMACEUTICAL CO., LTD., priority 2016, dated 2021):

Experiments:
[1] = Blood-brain barrier penetration (brain tissue to plasma concentration ratio); assay type: in vivo; conditions: rat, rats, four hours after dosing
Experimental: To determine whether the compound was able to cross the blood-brain barrier (BBB), the rats were administered with the test compound. Four hours after dosing, rats were sacrificed, blood and brain tissue were collected and the concentration of the test compound was analyzed. Brain permeation is defined as the ratio of the concentration of the compound in the brain tissue to the concentration in the plasma. P-glycoprotein is the blood-brain barrier efflux protein, […].

PC-9 tumor cell = test: CellTiter-Glo (CTG) cell viability assay, PC-9 tumor cell growth inhibition; conditions: for IC50: Homo sapiens, PC-9, 72 h, read-out: PC-9 tumor cell growth inhibition IC50; for inhibiting PC-9 tumor cell growth compared with Iressa: PC-9 cells, cell viability assay
Experimental: Cell viability of tumor cells with EGFR-activated mutations (exon 19-deficient Exon 19 Del) protein was detected using CellTiter-Glo (CTG) assay; about 5000 cells were seeded in each blank 96-well plate, 16 hours later, add the proportionally diluted compound, equilibrated at room temperature for 72 hours after the addition of the drug for 30 minutes. 100 μl of CellTiter-Glo reagent was added to each well and the orbital shaker was mixed for 2 minutes to induce cell lysis. The plate was incubated at room temperature for 10 minutes to stabilize the luminescence signal. The TECAN Infinite M1000 Pro instrument records the luminescence signal.

| Kp at 4 h [1] | IC50 (PC-9 tumor cell) | Structure (SMILES) | inhibiting PC-9 tumor cell growth compared with Iressa (PC-9 tumor cell) |
| --- | --- | --- | --- |
| > 0.3 | < 1 nM | [2H]C([2H])([2H])Oc1cc2ncnc(Nc3cccc(Cl)c3F)c2cc1OC1CCN(C2COC2)CC1(F)F (racemic) [Compound 3, (R/S)—N-(3-chloro-2-fluorophenyl)-6-((3,3-difluoro-1-(oxetan-3-yl)piperidin-4-yl)oxy)-7-(methoxy-d3)quinazolin-4-amine] | – |
| > 0.3 | – | C#Cc1c(F)ccc(Nc2ncnc3cc(OC)c(OC4CCN(C5COC5)CC4(F)F)cc23)c1F (racemic) [Compound 8, (R/S)-6-((3,3-difluoro-1-(oxetan-3-yl)piperidin-4-yl)oxy)-N-(3-ethynyl-2,4-difluorophenyl)-7-methoxyquinazolin-4-amine] | – |
| > 0.3 | – | [2H]C([2H])([2H])Oc1cc2ncnc(Nc3cccc(C#C)c3F)c2cc1OC1CCN(C2COC2)CC1(F)F (racemic) [Compound 4, (R/S)-6-((3,3-difluoro-1-(oxetan-3-yl)piperidin-4-yl)oxy)-N-(3-ethynyl-2-fluorophenyl)-7-(methoxy-d3)quinazolin-4-amine] | – |
| > 0.3 | – | C#Cc1cccc(Nc2ncnc3cc(OC)c(O[C@H]4CCN(C5COC5)CC4(F)F)cc23)c1F [Compound 14, (S)-6-((3,3-difluoro-1-(oxetan-3-yl)piperidin-4-yl)oxy)-N-(3-ethynyl-2-fluorophenyl)-7-methoxyquinazolin-4-amine] | – |
| > 0.3 | – | C#Cc1c(F)ccc(Nc2ncnc3cc(OC)c(O[C@H]4CCN(C)CC4(F)F)cc23)c1F [Compound 21, (S)-6-((3,3-difluoro-1-methylpiperidin-4-yl)oxy)-N-(3-ethynyl-2,4-difluorophenyl)-7-methoxyquinazolin-4-amine] | – |
| > 0.3 | < 1 nM | COc1cc2ncnc(Nc3ccc(F)c(Cl)c3F)c2cc1OC1CCN(C2COC2)CC1(F)F (racemic) [Compound 7, (R/S)—N-(3-chloro-2,4-difluorophenyl)-6-((3,3-difluoro-1-(oxetan-3-yl)piperidin-4-yl)oxy)-7-methoxyquinazolin-4-amine] | more effective than Iressa |
| > 0.3 | – | C#Cc1cccc(Nc2ncnc3cc(OC)c(OC4CCN(C)CC4(F)F)cc23)c1F (racemic) [Compound 6, (R/S)-6-((3,3-difluoro-1-methylpiperidin-4-yl)oxy)-N-(3-ethynyl-2-fluorophenyl)-7-methoxyquinazolin-4-amine] | – |
| > 0.3 | < 1 nM | [2H]C([2H])([2H])Oc1cc2ncnc(Nc3cccc(Cl)c3F)c2cc1O[C@@H]1CCN(C2COC2)CC1(F)F [Compound 15, (R)—N-(3-chloro-2-fluorophenyl)-6-((3,3-difluoro-1-(oxetan-3-yl)piperidin-4-yl)oxy)-7-(methoxy-d3)quinazolin-4-amine] | – |
| > 0.3 | – | C#Cc1cccc(Nc2ncnc3cc(OC)c(O[C@H]4CCN(C)CC4(F)F)cc23)c1F [Compound 22, (S)-6-((3,3-difluoro-1-methylpiperidin-4-yl)oxy)-N-(3-ethynyl-2-fluorophenyl)-7-methoxyquinazolin-4-amine] | – |
| > 0.3 | < 1 nM | [2H]C([2H])([2H])Oc1cc2ncnc(Nc3cccc(Cl)c3F)c2cc1O[C@H]1CCN(C2COC2)CC1(F)F [Compound 17, (S)—N-(3-chloro-2-fluorophenyl)-6-((3,3-difluoro-1-(oxetan-3-yl)piperidin-4-yl)oxy)-7-(methoxy-d3)quinazolin-4-amine] | – |
| > 0.3 | – | [2H]C([2H])([2H])Oc1cc2ncnc(Nc3cccc(C#C)c3F)c2cc1O[C@@H]1CCN(C2COC2)CC1(F)F [Compound 16, (R)-6-((3,3-difluoro-1-(oxetan-3-yl)piperidin-4-yl)oxy)-N-(3-ethynyl-2-fluorophenyl)-7-(methoxy-d3)quinazolin-4-amine] | – |
| > 0.3 | – | C#Cc1c(F)ccc(Nc2ncnc3cc(OC)c(O[C@@H]4CCN(C)CC4(F)F)cc23)c1F [Compound 19, (R)-6-((3,3-difluoro-1-methylpiperidin-4-yl)oxy)-N-(3-ethynyl-2,4-difluorophenyl)-7-methoxyquinazolin-4-amine] | – |
| > 0.3 | – | [2H]C([2H])([2H])Oc1cc2ncnc(Nc3ccc(F)c(C#C)c3F)c2cc1O[C@H]1CCN(C2COC2)CC1(F)F [Compound 30, (S)-6-((3,3-difluoro-1-(oxetan-3-yl)piperidin-4-yl)oxy)-N-(3-ethynyl-2,4-difluorophenyl)-7-(methoxy-d3)quinazolin-4-amine] | – |
| > 0.3 | – | C#Cc1c(F)ccc(Nc2ncnc3cc(OC)c(O[C@H]4CCN(C5COC5)CC4(F)F)cc23)c1F [Compound 26, (S)-6-((3,3-difluoro-1-(oxetan-3-yl)piperidin-4-yl)oxy)-N-(3-ethynyl-2,4-difluorophenyl)-7-methoxyquinazolin-4-amine] | – |
| > 0.3 | < 1 nM | COc1cc2ncnc(Nc3cccc(Cl)c3F)c2cc1O[C@@H]1CCN(C2COC2)CC1(F)F [Compound 11, (R)—N-(3-chloro-2-fluorophenyl)-6-((3,3-difluoro-1-(oxetan-3-yl)piperidin-4-yl)oxy)-7-methoxyquinazolin-4-amine] | – |
| > 0.3 | < 1 nM | [2H]C([2H])([2H])Oc1cc2ncnc(Nc3ccc(F)c(Cl)c3F)c2cc1O[C@H]1CCN(C2COC2)CC1(F)F [Compound 29, (S)—N-(3-chloro-2,4-difluorophenyl)-6-((3,3-difluoro-1-(oxetan-3-yl)piperidin-4-yl)oxy)-7-(methoxy-d3)quinazolin-4-amine] | – |
| > 0.3 | – | C#Cc1cccc(Nc2ncnc3cc(OC)c(OC4CCN(C5COC5)CC4(F)F)cc23)c1F (racemic) [Compound 2, (R/S)-6-((3,3-difluoro-1-(oxetan-3-yl)piperidin-4-yl)oxy)-N-(3-ethynyl-2-fluorophenyl)-7-methoxyquinazolin-4-amine] | – |
| > 0.3 | < 1 nM | COc1cc2ncnc(Nc3ccc(F)c(Cl)c3F)c2cc1O[C@@H]1CCN(C2COC2)CC1(F)F [Compound 23, (R)—N-(3-chloro-2,4-difluorophenyl)-6-((3,3-difluoro-1-(oxetan-3-yl)piperidin-4-yl)oxy)-7-methoxyquinazolin-4-amine] | – |
| > 0.3 | < 1 nM | COc1cc2ncnc(Nc3ccc(F)c(Cl)c3F)c2cc1O[C@H]1CCN(C2COC2)CC1(F)F [Compound 25, (S)—N-(3-chloro-2,4-difluorophenyl)-6-((3,3-difluoro-1-(oxetan-3-yl)piperidin-4-yl)oxy)-7-methoxyquinazolin-4-amine] | – |
| > 0.3 | – | [2H]C([2H])([2H])Oc1cc2ncnc(Nc3ccc(F)c(C#C)c3F)c2cc1OC1CCN(C2COC2)CC1(F)F (racemic) [Compound 10, (R/S)-6-((3,3-difluoro-1-(oxetan-3-yl)piperidin-4-yl)oxy)-N-(3-ethynyl-2,4-difluorophenyl)-7-(methoxy-d3)quinazolin-4-amine] | – |
| > 0.3 | – | C#Cc1c(F)ccc(Nc2ncnc3cc(OC)c(OC4CCN(C)CC4(F)F)cc23)c1F (racemic) [Compound 5, (R/S)-6-((3,3-difluoro-1-methylpiperidin-4-yl)oxy)-N-(3-ethynyl-2,4-difluorophenyl)-7-methoxyquinazolin-4-amine] | – |
| > 0.3 | < 1 nM | COc1cc2ncnc(Nc3cccc(Cl)c3F)c2cc1O[C@H]1CCN(C2COC2)CC1(F)F [Compound 13, (S)—N-(3-chloro-2-fluorophenyl)-6-((3,3-difluoro-1-(oxetan-3-yl)piperidin-4-yl)oxy)-7-methoxyquinazolin-4-amine] | – |
| > 0.3 | < 1 nM | COc1cc2ncnc(Nc3cccc(Cl)c3F)c2cc1OC1CCN(C2COC2)CC1(F)F (racemic) [Compound 1, (R/S)—N-(3-chloro-2-fluorophenyl)-6-((3,3-difluoro-1-(oxetan-3-yl)piperidin-4-yl)oxy)-7-methoxyquinazolin-4-amine] | more effective than Iressa |
| > 0.3 | – | C#Cc1c(F)ccc(Nc2ncnc3cc(OC)c(O[C@@H]4CCN(C5COC5)CC4(F)F)cc23)c1F [Compound 24, (R)-6-((3,3-difluoro-1-(oxetan-3-yl)piperidin-4-yl)oxy)-N-(3-ethynyl-2,4-difluorophenyl)-7-methoxyquinazolin-4-amine] | – |
| > 0.3 | < 1 nM | [2H]C([2H])([2H])Oc1cc2ncnc(Nc3ccc(F)c(Cl)c3F)c2cc1O[C@@H]1CCN(C2COC2)CC1(F)F [Compound 27, (R)—N-(3-chloro-2,4-difluorophenyl)-6-((3,3-difluoro-1-(oxetan-3-yl)piperidin-4-yl)oxy)-7-(methoxy-d3)quinazolin-4-amine] | – |
| > 0.3 | – | C#Cc1cccc(Nc2ncnc3cc(OC)c(O[C@@H]4CCN(C5COC5)CC4(F)F)cc23)c1F [Compound 12, (R)-6-((3,3-difluoro-1-(oxetan-3-yl)piperidin-4-yl)oxy)-N-(3-ethynyl-2-fluorophenyl)-7-methoxyquinazolin-4-amine] | – |
| > 0.3 | – | [2H]C([2H])([2H])Oc1cc2ncnc(Nc3cccc(C#C)c3F)c2cc1O[C@H]1CCN(C2COC2)CC1(F)F [Compound 18, (S)-6-((3,3-difluoro-1-(oxetan-3-yl)piperidin-4-yl)oxy)-N-(3-ethynyl-2-fluorophenyl)-7-(methoxy-d3)quinazolin-4-amine] | – |
| > 0.3 | – | C#Cc1cccc(Nc2ncnc3cc(OC)c(O[C@@H]4CCN(C)CC4(F)F)cc23)c1F [Compound 20, (R)-6-((3,3-difluoro-1-methylpiperidin-4-yl)oxy)-N-(3-ethynyl-2-fluorophenyl)-7-methoxyquinazolin-4-amine] | – |
| > 0.3 | – | [2H]C([2H])([2H])Oc1cc2ncnc(Nc3ccc(F)c(C#C)c3F)c2cc1O[C@@H]1CCN(C2COC2)CC1(F)F [Compound 28, (R)-6-((3,3-difluoro-1-(oxetan-3-yl)piperidin-4-yl)oxy)-N-(3-ethynyl-2,4-difluorophenyl)-7-(methoxy-d3)quinazolin-4-amine] | – |
